Blank lines part the entries; values can stand above or below the compound they belong to.
Experiments:
[1] = test system: MOLM-13 (FLT3 ITD+/− mutant type); assay: In vitro growth inhibition (GI50), MOLM-13; format: cell-based, human; settings: Homo sapiens, MOLM-13; Cell lines of leukemia; read-out: GI 50 MOLM-13 FLT3 (ITD+/−)
[2] = test system: MV4-11 (FLT3 ITD+/+ mutant type); assay: In vitro growth inhibition (GI50), MV4-11; format: cell-based, human; settings: Homo sapiens, MV4-11; Cell lines of leukemia; read-out: GI 50 MV4-11 FLT3 (ITD +/+)
[3] = test system: K562 (FLT3 negative expression, positive expression of BCR-ABL fusion protein); assay: In vitro growth inhibition (GI50), K562; format: cell-based; settings: Homo sapiens, Cell lines of leukemia, read-out: GI 50 K562 BCR-ABL
[4] = test system: OCI-AML3 (NPMc+ mutant type); assay: In vitro growth inhibition (GI50), OCI-AML3; format: cell-based; settings: Homo sapiens, OCI-AML-3; Cell lines of leukemia; read-out: GI 50 OCI- AML3 NPMc+
[5] = test system: KG-1 (expressing FGFR1OP2-FGFR1 fusion protein); assay: In vitro growth inhibition (GI50), KG-1; format: cell-based; settings: Homo sapiens; Cell lines of leukemia; read-out: GI 50 KG-1 FGFR1OP 2-FGFR1
[6] = test system: Kasumi-1 (c-Kit N822K mutant type); assay: In vitro growth inhibition (GI50), Kasumi-1; format: cell-based; settings: Homo sapiens, Cell lines of leukemia, read-out: GI 50 Kasumi-1 Kit (N822K)
Outline: (§1)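 Cells in RPMI1640 with 10% FBS, seeded at 5–10×10^4 cells/mL, exposed next day to compound at 5,000 nM down to 0.01 nM (2- or 10-fold dilutions, ≤1% solvent) for 3–5 days at 37 °C. CCK8 absorbance at 450 nm, growth rate relative to pre-treatment and solvent controls, GI50 from concentration–growth curve.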

[7] = test system: RAMOS (positive expression of Brutons tyrosine protein kinase); assay: In vitro growth inhibition (GI50), RAMOS; format: cell-based; settings: Homo sapiens, Cell lines of leukemia, read-out: GI 50 Ramos BTK
U937 (FLT3 wild-type) = assay: In vitro growth inhibition (GI50), U937; format: cell-based; settings: Homo sapiens, U-937; Cell lines of leukemia; read-out: GI 50 U937 FLT 3(WT)
RS4; 11 (FLT3 wild type) = assay: In vitro growth inhibition (GI50), RS4; 11; format: cell-based, human; settings: Homo sapiens, RS4-11; Cell lines of leukemia; read-out: GI 50 RS4: 11 FLT3 (WT)
HL-60 (FLT3 wild type) = assay: In vitro growth inhibition (GI50), HL-60; format: cell-based; settings: Homo sapiens, Cell lines of leukemia, read-out: GI 50 HL60 FLT3 (WT)
Outline: as §1

Structure (SMILES): Nc1cc(C(F)(F)F)nn1C(=O)Nc1ccc(-n2cnc3ccccc32)cc1 [Compound 115, 5-amino-3-trifluoromethylpyrazol-1-carboxylic acid (4-benzimidazol-1-yl-phenyl)-amide]
GI50 [1]: 100 to 1000 nM | GI50 [2]: 100 to 1000 nM | GI50 [3]: > 1000 nM | GI50 [4]: 100 to 1000 nM | GI50 [5]: > 1000 nM | GI50 [6]: > 1000 nM | GI50 [7]: > 1000 nM | GI50 (U937 (FLT3 wild-type)): > 1000 nM | GI50 (RS4; 11 (FLT3 wild type)): > 1000 nM | GI50 (HL-60 (FLT3 wild type)): > 1000 nM

Structure (SMILES): CC(C)(C)c1cc(N)n(C(=O)Nc2ccc(-n3cnc4cc(F)ccc43)cc2)n1 [Compound 125, 5-amino-3-tert-butyl-pyrazol-1-carboxylic acid [4-(5-fluoro-benzimidazol-1-yl)-phenyl]-amide]
GI50 [1]: 10 to 100 nM | GI50 [2]: 10 to 100 nM | GI50 [3]: > 1000 nM | GI50 [4]: > 1000 nM | GI50 [5]: > 1000 nM | GI50 [6]: > 1000 nM | GI50 [7]: > 1000 nM | GI50 (U937 (FLT3 wild-type)): > 1000 nM | GI50 (RS4; 11 (FLT3 wild type)): > 1000 nM | GI50 (HL-60 (FLT3 wild type)): > 1000 nM

Structure (SMILES): Cc1ccc(-n2nc(C(C)(C)C)cc2NC(=O)Nc2ccc(-n3cnc4ccccc43)cc2)cc1 [Compound 105, 1-(4-benzimidazol-1-yl-phenyl)-3-(5-tert-butyl-2-p-tolyl-2H-pyrazol-3-yl)-urea]
GI50 [1]: 10 to 100 nM | GI50 [2]: 10 to 100 nM | GI50 [3]: > 1000 nM | GI50 [4]: > 1000 nM | GI50 [5]: > 1000 nM | GI50 [6]: > 1000 nM | GI50 [7]: > 1000 nM | GI50 (U937 (FLT3 wild-type)): > 1000 nM | GI50 (RS4; 11 (FLT3 wild type)): > 1000 nM | GI50 (HL-60 (FLT3 wild type)): > 1000 nM

Structure (SMILES): CC(C)(C)c1cc(NC(=O)Nc2ccc(-n3cnc4cccnc43)cc2)no1 [Compound 50, 1-(5-tert-butyl-isoxazol-3-yl)-3-(4-imidazo[4,5-b]pyridin-3-yl-phenyl)-urea]
GI50 [1]: 0.1 to 1 nM | GI50 [2]: 0.1 to 1 nM | GI50 [3]: > 1000 nM | GI50 [4]: > 1000 nM | GI50 [5]: > 1000 nM | GI50 [6]: > 1000 nM | GI50 [7]: > 1000 nM | GI50 (U937 (FLT3 wild-type)): > 1000 nM | GI50 (RS4; 11 (FLT3 wild type)): > 1000 nM | GI50 (HL-60 (FLT3 wild type)): > 1000 nM

Structure (SMILES): CC(C)(C)c1cc(NC(=O)Nc2ccc(-n3cnc4cc(OCCCCc5nnnn5C5CCCCC5)ccc43)cc2)[nH]n1 [Compound 94, 1-(5-tert-butyl-2H-pyrazol-3-yl)-3-(4-{5-[4-(1-cyclohexyl-1H-tetrazol-5-yl)-butoxy]-benzimidazol-1-yl}-phenyl)-urea]
GI50 [1]: 1 to 10 nM | GI50 [2]: 1 to 10 nM | GI50 [3]: > 1000 nM | GI50 [4]: > 1000 nM | GI50 [5]: > 1000 nM | GI50 [6]: > 1000 nM | GI50 [7]: > 1000 nM | GI50 (U937 (FLT3 wild-type)): > 1000 nM | GI50 (RS4; 11 (FLT3 wild type)): > 1000 nM | GI50 (HL-60 (FLT3 wild type)): > 1000 nM

Further lines, with some results ahead:

GI50 [1]: 0.1 to 1 nM | GI50 [2]: 0.1 to 1 nM | GI50 [3]: > 1000 nM | GI50 [4]: > 1000 nM | GI50 [7]: > 1000 nM | GI50 (U937 (FLT3 wild-type)): > 1000 nM | GI50 (RS4; 11 (FLT3 wild type)): > 1000 nM | GI50 (HL-60 (FLT3 wild type)): 100 to 1000 nM
Structure (SMILES): CC(C)(C)c1cc(NC(=O)Nc2ccc(-n3cnc4cc(OCC5CCCO5)ccc43)cc2)[nH]n1 (centres unmarked) [Compound 86, 1-(5-tert-butyl-2H-pyrazol-3-yl)-3-{4-[5-(tetrahydrofuran-2-ylmethoxy)-benzimidazol-1-yl]-phenyl}-urea]
GI50 [5]: > 1000 nM | GI50 [6]: > 1000 nM

GI50 [1]: 1 to 10 nM | GI50 [2]: 1 to 10 nM | GI50 [3]: > 1000 nM | GI50 [4]: > 1000 nM | GI50 [7]: > 1000 nM | GI50 (U937 (FLT3 wild-type)): > 1000 nM | GI50 (RS4; 11 (FLT3 wild type)): > 1000 nM | GI50 (HL-60 (FLT3 wild type)): > 1000 nM
Structure (SMILES): CC(C)(C)c1cc(NC(=O)Nc2ccc(-n3cnc4cc(Br)cnc43)cc2)no1 [Compound 51, 1-[4-(6-bromo-imidazo[4,5-b]pyridin-3-yl)-phenyl]-3-(5-tert-butyl-isoxazol-3-yl)-urea]
GI50 [5]: > 1000 nM | GI50 [6]: > 1000 nM

GI50 [1]: 0.1 to 1 nM | GI50 [2]: 0.1 to 1 nM | GI50 [3]: > 1000 nM | GI50 [4]: > 1000 nM | GI50 [7]: > 1000 nM | GI50 (U937 (FLT3 wild-type)): > 1000 nM | GI50 (RS4; 11 (FLT3 wild type)): > 1000 nM | GI50 (HL-60 (FLT3 wild type)): > 1000 nM
Structure (SMILES): CC(C)(C)c1cc(NC(=O)Nc2ccc(-n3cnc4cc(OCC#N)ccc43)cc2)[nH]n1 [Compound 83, 1-(5-tert-butyl-2H-pyrazol-3-yl)-3-[4-(5-cyanomethoxy-benzimidazol-1-yl)-phenyl]-urea]
GI50 [5]: > 1000 nM | GI50 [6]: > 1000 nM

Reference: US10647680B2, “Urea compound, preparation method therefor and medical use thereof” (Ancureall Pharmaceutical (Shanghai) Co., Ltd., priority 2016, dated 2020)
